Experimental data published in patent publication US8257921B1, “NRIP1 regulation of apolipoprotein A1” (Schering Corporation, priority 2008, dated 2012).

What was measured:
apoA1 mRNA [1] = test: apoA1 mRNA by RT-qPCR in transfected HepG2 cells; type: cell-based, human; conditions: for apoA1 mRNA levels: individual NRIP1 Dicer substrate dsiRNA duplexes (FIG. 8)
From the text: Pools of siRNAs that were targeted to NRIP1 (#27) and 32 other transcription modulators were transfected into cultured HepG2 cell along with experimental controls apoA1 siRNA (siApoA1), siRNA non-targeting control (siNT) and transfection media without siRNA (HepG2). […] Each siRNA was designed and synthesized by Dharmacon to interact in a sequence specific manner with the target mRNA and suppress gene expression. For NRIP1, the following siRNA duplexes were used based on the NRIP1 sequence found under GenBank Accession no. NM_173440.
Cultured human hepatoma cell line HepG2 cells were seeded in 6-well plates at a density of 4E5 (i.e., 4×10^5) cells/well in antibiotic free 10% FBS/MEME and cultured for 16 hours. siRNA (20 μM) was prepared by diluting to 2 μM with buffer. To that, equal amounts Opti-MEM medium was added, mixed and kept at room temperature (RT) for 5 minutes. Transfection lipid was prepared using DharmaFECT 4 transfection reagent X25 times diluted with Opti-MEM medium (4 μL/100 medium), mixed and kept at RT for 5 minutes. siRNA and transfection lipid were complexed by mixing equal volumes and incubated for 20 minutes at RT. […]
Forty-eight hours post transfection, medium was removed from transfected HepG2 culture and assessed for secreted apoA1 levels using a human apoA1 sandwich ELISA (MabTech) as described by the manufacturer. […]
HepG2 cells were transfected with varying concentrations of pooled NRIP1 siRNA as described in Example 1, except that 24 hours post transfection 10 μM 9 cis-retinoic acid was added to the growth medium. Cells were harvested 24 hours later and apoA1 and NRIP1 mRNA levels measured as previously described. […]
HepG2 cells were transfected with four individual NRIP1 siRNA duplexes at a concentration of 100 nM or a pool of all four siRNAs at a final concentration 100 nM following the protocol previously described. […] In FIG. 6, expression levels of NRIP1 gene expression were similarly evaluated. […]

NRIP1 target mRNA = test: NRIP1 mRNA by RT-qPCR in transfected HepG2 cells; type: cell-based, human; conditions: for NRIP1 target gene expression, dose response: 4-fold dilutions from 100 nM to 1.56 nM (FIG. 7); for NRIP1 gene expression (suppression): individual siRNA duplexes 100 nM, vs siNT and lipid controls (FIG. 6)
Method: Cultured human hepatoma cell line HepG2 cells were seeded in 6-well plates at a density of 4E5 (i.e., 4×10^5) cells/well in antibiotic free 10% FBS/MEME and cultured for 16 hours. siRNA (20 μM) was prepared by diluting to 2 μM with buffer. To that, equal amounts Opti-MEM medium was added, mixed and kept at room temperature (RT) for 5 minutes. Transfection lipid was prepared using DharmaFECT 4 transfection reagent X25 times diluted with Opti-MEM medium (4 μL/100 medium), mixed and kept at RT for 5 minutes. siRNA and transfection lipid were complexed by mixing equal volumes and incubated for 20 minutes at RT. Cultured HepG2 cells in 6-sell plates were changed into fresh antibiotic free 10% FBS/MEME (1.6 mL/well) and 400 complexed siRNA was added to each well to a final concentration of 100 nM and incubated for 48 hrs.
HepG2 cells were transfected with varying concentrations of pooled NRIP1 siRNA as described in Example 1, except that 24 hours post transfection 10 μM 9 cis-retinoic acid was added to the growth medium. Cells were harvested 24 hours later and apoA1 and NRIP1 mRNA levels measured as previously described. RT-qPCR was performed as described (Zhu et al., Analytical Biochemistry 345:102-109 (2005)) using the following NRIP1 specific primer/probes:
HepG2 cells were transfected with four individual NRIP1 siRNA duplexes at a concentration of 100 nM or a pool of all four siRNAs at a final concentration 100 nM following the protocol previously described. Following isolation of total RNA, RT-qPCR was performed for apoA1 and NRIP1 gene expression. FIG. 5 compared apoA1 mRNA gene expression for siRNA samples to the siNT and lipid controls. In FIG. 6, expression levels of NRIP1 gene expression were similarly evaluated.
The differential effectiveness of individual sequence specific RNAi molecules to inhibit gene expression is well documented (Soutschek et al., Nature 432: 173-178 (2004)). […] The NRIP1 siRNA #5 and #8 were compare using 4-fold dilutions from 100 nM to 1.56 nM.

apoA1 mRNA [2] = conditions: HepG2 cells; Haghpassand et al. 1995; cited from earlier work

| Compound | apoA1 mRNA levels (apoA1 mRNA [1]) | NRIP1 target gene expression, dose response (NRIP1 target mRNA) | NRIP1 gene expression (suppression) (NRIP1 target mRNA) | other results |
| --- | --- | --- | --- | --- |
| dsi#27-1: NRIP1 Dicer substrate RNAi duplex (IDT): sense 5′-AGACUAUACCUAAGCCAAUGAAUGG, antisense 5′-CCAUUCAUUGGCUUAGGAUAGUCUGG | elevated |  |  |  |
| dsi#27-2: NRIP1 Dicer substrate RNAi duplex (IDT): sense 5′-AGGAGUCACAGAAAUAAUGAAAUGG, antisense 5′-CCAUUUCAUUAUUUCUGUGACUCCUGU | elevated |  |  |  |
| siRNA #5: NRIP1 siRNA duplex: sense GAAGCGUGCUAACGAUAAAUU (SEQ ID NO: 7), antisense 5′P-UUUAUCGUUAGCACGCUUCUU (SEQ ID NO: 12) (5' phosphate on antisense strand, further chemistry not given here) |  | inhibited better by siRNA #8 over siRNA #5 | most effective |  |
| oligo #7: NRIP1 siRNA duplex: sense GGACUGGAAUGCAGCAAAGUU (SEQ ID NO: 14), antisense 5′P-CUUUGCUGCAUUCCAGUCCUU (SEQ ID NO: 15) (5' phosphate on antisense, further chemistry not given here) |  |  | least effective | apoA1 mRNA gene expression (induction) (apoA1 mRNA [1]; individual siRNA duplexes 100 nM, vs siNT and lipid controls (FIG. 5)): least effective |
| siRNA #8: NRIP1 siRNA duplex: sense AUACGAAUCUUCCUGAUGUUU (SEQ ID NO: 9), antisense 5′P-ACAUCAGGAAGAUUCGUAUUU (SEQ ID NO: 16) (5' phosphate on antisense strand, further chemistry not given here) |  | inhibited better | most effective |  |
| CC1=C(/C=C/C(C)=C\C=C\C(C)=C\C(=O)O)C(C)(C)CCC1 [9CRA, 9-cis retinoic acid] |  |  |  | endogenous apoA1 gene expression (apoA1 mRNA [2]): stimulates |
